Assay: Dentin loss under extreme erosion conditions, composition versus its three ingredients separately (Example 8)
Parameters: species or system cow
Details: 10 cycles: 5 min pre-treatment, 1% citric acid pH 2.3 for 3 min
Method: The protective capacity of a mouthwash formulated with olive oil, trimethylglycine and xylitol in dentin subjected to extreme erosion conditions was analysed, compared to that of aqueous solutions of the three ingredients separately in the same concentrations used in the mouthwash tested. For the evaluation of effects a control was included consisting of distilled water.
Incisive teeth extracted from a cow's jaw were used, which were immersed in a 0.5% thymol solution at room temperature. The teeth were sectioned at the cementum-enamel junction by means of a water-cooled diamond scalpel (Exakt, Norderstedt, Germany), and the crowns and roots were embedded in acrylic resin cylinders (Paladur, Heraeus Kulzer, Wehrheim, Germany). Radicular cementum was completely eliminated. […]
Dentin loss was quantified performing profile or profilometric measurements (Mahr Perthometer, Göttingen, Germany). […] After the experiment the adhesive tapes were removed and the samples were analysed again. The average depth of the eroded surfaces was thus calculated with respect to basic surface profiles by means of specific software (Mahr Perthometer Concept 7.0, Mahr, Göttingen, Germany).
Dentin loss was calculated (mean±standard deviation) for each group and statistically analysed by Student's t test followed by Bonferroni's t test for multiple comparisons (Statistica 6.0, Statsoft, Tulsa, USA).

Structure (SMILES) | protective effect on dentin against erosion
OC[C@@H](O)[C@H](O)[C@@H](O)CO [1% xylitol solution, xylitol] | did not demonstrate any protective effect
C[N+](C)(C)CC(=O)[O-] [2% trimethylglycine solution, trimethylglycine] | did not demonstrate any protective effect
